Laboratory results from patent publication US12673942B2, “Azabicyclyl-substituted heterocycles as fungicides” (Bayer Aktiengesellschaft, priority 2020, dated 2026).

Legend:
[1] = Measurement of Log P values by HPLC on reversed phase columns (EEC directive 79/831 Annex V.A8); format: physicochemical
Method: Measurement of Log P values as provided herein was performed according to EEC directive 79/831 Annex V.A8 by HPLC (High Performance Liquid Chromatography) on reversed phase columns with the following methods: • ^[a] Log P value is determined by measurement of LC-UV, in an acidic range, with 0.1% formic acid in water and acetonitrile as eluent (linear gradient from 10% acetonitrile to 95% acetonitrile). • ^[b] Log P value is determined by measurement of LC-UV, in a neutral range, with 0.001 molar ammonium acetate solution in water and acetonitrile as eluent (linear gradient from 10% acetonitrile to 95% acetonitrile). • ^[c] Log P value is determined by measurement of LC-UV, in an acidic range, with 0.1% phosphoric acid and acetonitrile as eluent (linear gradient from 10% acetonitrile to 95% acetonitrile).
If more than one Log P value is available within the same method, all the values are given and separated by “+”. […]

Alternaria alternata = Alternaria alternata in vitro cell test; format: cell-based; settings: 120 h, 20 ppm of active ingredient, liquid culture, 5 days incubation, read-out: efficacy (inhibition of fungal growth)
Method: (§1) • Solvent: […] Fungicides were solubilized in DMSO and the solution used to prepare the required range of concentrations. The final concentration of DMSO used in the assay was ≤1%. A spore suspension of Alternaria alternata was prepared and diluted to the desired spore density. Fungicides were evaluated for their ability to inhibit spore germination and mycelium growth in liquid culture assay. The compounds were added in the desired concentration to the culture medium with spores. After 5 days incubation, fungi-toxicity of compounds was determined by spectrometric measurement of mycelium growth. Inhibition of fungal growth was determined by comparing the absorbance values in wells containing the fungicides with the absorbance in control wells without fungicides.

Fusarium culmorum = Fusarium culmorum in vitro cell test; format: cell-based; settings: 96 h, 20 ppm of active ingredient, liquid culture, 4 days incubation, read-out: efficacy (inhibition of fungal growth)
Method: • Solvent: DMSO • Culture medium: 14.6 g anhydrous D-glucose (VWR), 7.1 g Mycological Peptone (Oxoid), 1.4 g granulated Yeast Extract (Merck), QSP 1 liter • Inoculum: spore suspension
Fungicides were solubilized in DMSO and the solution used to prepare the required range of concentrations. The final concentration of DMSO used in the assay was ≤1%.
A spore suspension of Fusarium culmorum was prepared and diluted to the desired spore density.
Fungicides were evaluated for their ability to inhibit spore germination and mycelium growth in liquid culture assay. The compounds were added in the desired concentration to the culture medium with spores. After 4 days incubation, fungi-toxicity of compounds was determined by spectrometric measurement of mycelium growth. Inhibition of fungal growth was determined by comparing the absorbance values in wells containing the fungicides with the absorbance in control wells without fungicides.

Pyricularia oryzae = experiment: microbe, parasite or virus in culture; format: cell-based; settings: 120 h, read-out: efficacy (inhibition of fungal growth)
[2] = tested on: Colletotrichum lindemuthianum; experiment: Colletotrichum lindemuthianum in vitro cell test; format: cell-based; settings: 144 h, 20 ppm of active ingredient, liquid culture, 6 days incubation, read-out: efficacy (inhibition of fungal growth)
Method: as §1, with “1%.” for “≤1%.”, “Colletotrichum lindemuthianum” for “Alternaria alternata”, “6” for “5”

Septoria tritici = Septoria tritici in vitro cell test; format: cell-based; settings: Zymoseptoria tritici, 168 h; 20 ppm of active ingredient; liquid culture, 7 days incubation; read-out: efficacy (inhibition of fungal growth)
Method: • Solvent: DMSO • Culture medium: 1 g KH2PO4 (VWR), 1 g K2HPO4 (VWR), 0.5 g Urea (VWR), 3 g KNO3 (Prolabo), 10 g saccharose (VWR), 0.5 g MgSO4, 7H2O (Sigma), 0.07 g CaCl2, 2H2O (Prolabo), 0.2 mg MnSO4, H2O (Sigma), 0.6 mg CuSO4, 5H2O (Sigma), 7.9 mg ZnSO4, 7H2O (Sigma), 0.1 mg H3BO3 (Merck), 0.14 mg NaMoO4, 2H2O (Sigma), 2 mg thiamine (Sigma), 0.1 mg biotine (VWR), 4 mg FeSO4, 7H2O (Sigma), QSP 1 liter • Inoculum: spore suspension Fungicides were solubilized in DMSO and the solution used to prepare the required range of concentrations. The final concentration of DMSO used in the assay was 1%. A spore suspension of Septoria tritici was prepared and diluted to the desired spore density. Fungicides were evaluated for their ability to inhibit spore germination and mycelium growth in liquid culture assay. The compounds were added in the desired concentration to the culture medium with spores. […] Inhibition of fungal growth was determined by comparing the absorbance values in wells containing the fungicides with the absorbance in control wells without fungicides.

[3] = method [a]: LC-UV, acidic range, 0.1% formic acid in water and acetonitrile as eluent
[4] = method [b]: LC-UV, neutral range, 0.001 molar ammonium acetate solution in water and acetonitrile as eluent

Compound	chromatographic logP [1, 3]	inhibition at 20 ppm (Alternaria alternata)	inhibition at 20 ppm (Fusarium culmorum)	inhibition at 20 ppm (Pyricularia oryzae)	inhibition at 20 ppm [2]	chromatographic logP [1, 4]	inhibition at 20 ppm (Septoria tritici)
Cc1cccc(Oc2nnc3ccccc3c2C2=NOCC(Cc3ccc(C)cc3C)N2)c1 (racemic) [Compound I-001, 4-[(5RS)-5-(2,4-dimethylbenzyl)-5,6-dihydro-4H-1,2,4-oxadiazin-3-yl]-3-(3-methylphenoxy)cinnoline]	3.85	≥ 70%	≥ 70%	≥ 70%	≥ 70%	–	–
Cc1ccc(CC2CON=C(c3c(Oc4cccc(Cl)c4)nnc4ccccc34)N2)c(C)c1 (racemic) [Compound I-002, 3-(3-chlorophenoxy)-4-[(5RS)-5-(2,4-dimethylbenzyl)-5,6-dihydro-4H-1,2,4-oxadiazin-3-yl]cinnoline]	3.96	≥ 70%	≥ 70%	≥ 70%	≥ 70%	–	–
Cc1ccc(C[C@@H]2CON=C(c3c(Oc4cccc(C5CC5)c4)nnc4ccccc34)N2)c(C)c1 (racemic) [Compound I-003]	4.11	≥ 70%	≥ 70%	≥ 70%	≥ 70%	–	–
Cc1ccc(C[C@@H]2CON=C(c3c(Oc4cccc(C(F)(F)F)c4)cnc4ccccc34)N2)c(C)c1 (racemic) [Compound I-004]	4.19	≥ 70%	≥ 70%	≥ 70%	≥ 70%	–	–
Cc1ccc(C[C@@H]2CON=C(c3c(Oc4cccc(C(F)(F)F)c4)nnc4cc(C)ccc34)N2)c(C)c1 (racemic) [Compound I-005]	4.32	≥ 70%	≥ 70%	≥ 70%	≥ 70%	4.27	–
Cc1ccc(CC2CON=C(c3c(Oc4cccc(C5CC5)c4F)nnc4ccccc34)N2)c(C)c1 (racemic) [Compound I-006, 3-(3-cyclopropyl-2-fluorophenoxy)-4-[(5RS)-5-(2,4-dimethylbenzyl)-5,6-dihydro-4H-1,2,4-oxadiazin-3-yl]cinnoline]	4.37	≥ 70%	≥ 70%	≥ 70%	≥ 70%	–	≥ 70%
FC(F)(F)c1cccc(Oc2nnc3ccccc3c2C2=NOC[C@@H](Cc3ccc(Br)cc3Cl)N2)c1 (racemic) [Compound I-007]	4.44	≥ 70%	≥ 70%	≥ 70%	≥ 70%	–	≥ 70%
Cn1cc(-c2ccc(C[C@@H]3CON=C(c4c(Oc5cccc(C(F)(F)F)c5)nnc5ccccc45)N3)c(Cl)c2)cn1 (racemic) [Compound I-008]	3.37	≥ 70%	–	≥ 70%	≥ 70%	–	–
C=Cc1ccc(C[C@@H]2CON=C(c3c(Oc4cccc(C(F)(F)F)c4)nnc4ccccc34)N2)c(Cl)c1 (racemic) [Compound I-009]	4.44	≥ 70%	≥ 70%	≥ 70%	≥ 70%	–	≥ 70%
Cc1ccc(CC2CNN=C(c3c(Oc4cccc(C(F)(F)F)c4)cnc4ccccc34)N2)c(C)c1 (racemic) [Compound I-010, 4-[(5RS)-5-(2,4-dimethylbenzyl)-1,4,5,6-tetrahydro-1,2,4-triazin-3-yl]-3-[3-(trifluoromethyl)phenoxy]quinoline]	2.57	≥ 70%	–	–	–	–	–
Cc1ccc(CC2CN=C(c3c(Oc4cccc(C(F)(F)F)c4)cnc4ccccc34)N2)c(C)c1 (racemic) [Compound I-011, 4-[(5RS)-5-(2,4-dimethylbenzyl)-4,5-dihydro-1H-imidazol-2-yl]-3-[3-(trifluoromethyl)phenoxy]quinoline]	2.57	≥ 70%	–	≥ 70%	≥ 70%	–	–
Cc1ccc(C[C@@H]2CN=C(c3c(Oc4cccc(Cl)c4)nnc4ccccc34)N2)c(C)c1 (racemic) [Compound I-012]	2.46	≥ 70%	–	≥ 70%	≥ 70%	–	–
Cc1ccc(C[C@@H]2CON=C(c3c(Oc4cccc(C(F)(F)F)c4)cnc4ccoc34)N2)c(C)c1 (racemic) [Compound I-013]	3.96	≥ 70%	≥ 70%	≥ 70%	≥ 70%	–	≥ 70%
Cc1ccc(C[C@@H]2CON=C(c3c(Oc4cccc(C5CC5)c4F)cnc4nccnc34)N2)c(C)c1 (racemic) [Compound I-014]	3.5	≥ 70%	≥ 70%	–	≥ 70%	–	≥ 70%
FC(F)(F)c1cccc(Oc2cnc3ccccc3c2C2=NC[C@@H](Cc3ccc(Cl)cc3)N2)c1 (racemic) [Compound I-015]	2.46	≥ 70%	≥ 70%	≥ 70%	≥ 70%	–	≥ 70%
C=Cc1cccc(Oc2cnc3ccccc3c2C2=NOC[C@@H](Cc3ccc(C)cc3Cl)N2)c1 (racemic) [Compound I-026]	4.19	–	–	–	–	–	–
Cc1ccc(C[C@@H]2CON=C(c3c(Oc4cccc(C(F)(F)F)c4)nnc4c3CCC4)N2)c(C)c1 (racemic) [Compound I-027]	3.87	–	–	–	–	–	–
Cc1ccc(C[C@@H]2CON=C(c3c(Oc4cccc(C(F)F)c4)nnc4c3CCCC4)N2)c(C)c1 (racemic) [Compound I-028]	3.6	–	–	–	–	–	–
Cc1ccc(C[C@@H]2CON=C(c3c(Oc4cccc(C5CC5)c4F)nnc4c3CCC4)N2)c(C)c1 (racemic) [Compound I-029]	4.13	–	–	–	–	–	–
Cc1ccc(C[C@@H]2CON=C(c3c(Oc4cccc(Br)c4F)cnc4ccccc34)N2)c(Cl)c1 (racemic) [Compound I-030]	4.37	–	–	–	–	–	–
Cc1ccc(C[C@@H]2CON=C(c3c(Oc4cccc(C(F)F)c4)cnc4ccccc34)N2)c(Cl)c1 (racemic) [Compound I-031]	3.98	–	–	–	–	–	–
CCOC(=O)c1c(Oc2cccc(C(F)(F)F)c2)nnc2c1CCC2 [Compound 1-22]	3.5	–	–	–	–	3.35	–
O=C(O)c1c(Oc2cccc(C(F)(F)F)c2)nnc2c1CCC2 [Compound 1-23]	1.75	–	–	–	–	0.44	–
